Test results published in PubChem BioAssay (NCI).
Values joined by “and” are separate entries in the source; they are usually repeats but may differ in a detail not shown here. Equal entries are not always repeated.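 All cell lines were grown in 96-well plates and treated with compound for 48 hours. GI50: concentration for 50% inhibition of growth. At the TGI there is no net growth.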

Key:
Experiment in all cases: NCI tumour cell line growth inhibition, 48 h
MCF7 breast = system: MCF7 breast
HCT-116 colon = system: HCT-116 colon
SF-268 CNS = system: SF-268 CNS
NCI-H23 lung = system: NCI-H23 lung
NCI/ADR-RES ovarian = system: NCI/ADR-RES ovarian
DU-145 prostate = system: DU-145 prostate
SW-620 colon = system: SW-620 colon
LOX IMVI melanoma = system: LOX IMVI melanoma
K-562 leukemia = system: K-562 leukemia
M14 melanoma = system: M14 melanoma

Compound | GI50 (MCF7 breast) | TGI (MCF7 breast) | GI50 (HCT-116 colon) | TGI (HCT-116 colon) | GI50 (SF-268 CNS) | TGI (SF-268 CNS) | GI50 (NCI-H23 lung) | TGI (NCI-H23 lung) | GI50 (NCI/ADR-RES ovarian) | TGI (NCI/ADR-RES ovarian) | GI50 (DU-145 prostate) | TGI (DU-145 prostate) | GI50 (SW-620 colon) | TGI (SW-620 colon) | GI50 (LOX IMVI melanoma) | TGI (LOX IMVI melanoma) | GI50 (K-562 leukemia) | TGI (K-562 leukemia) | GI50 (M14 melanoma) | TGI (M14 melanoma)
Cn1cc(-c2nc(-c3c[nH]c4ncccc34)cs2)c2ccccc21 | 0.401 µM | 26.1 µM | 24.2 µM | > 100 µM | 89.4 µM | > 100 µM | 4.49 µM | > 100 µM | 19.9 µM | > 100 µM | 62.8 µM | > 100 µM | 35.9 µM | > 100 µM | 24.5 µM | > 100 µM | 4.48 µM | > 100 µM | 19.3 µM | > 100 µM
O=c1cnnc(N/N=C/c2ccccc2O)[nH]1 | 0.0396 µM | – | 0.0337 µM | > 100 µM | 3.45 µM | > 87.3 µM | 1.21 µM | > 100 µM | 1.28 µM | > 64.5 µM | 6.58 µM | > 100 µM | 0.442 µM | > 100 µM | 1.07 µM | > 48.2 µM | 0.163 µM | > 100 µM | 0.449 µM | 19.2 µM
CC(C)(C)c1cc(NC(=O)Nc2ccc(-c3cn4c(n3)sc3cc(OCCN5CCOCC5)ccc34)cc2)no1 | 2.04 µM and 0.357 µM and 1.41 µM | 23.3 µM and 13.3 µM and > 10 µM | 4.23 µM and 0.576 µM and 5.19 µM | 19 µM and 11.1 µM and > 10 µM | 3.17 µM and 2.19 µM and 5.09 µM | 14.4 µM and 14.8 µM and > 10 µM | – | 26.8 µM and 12.8 µM and > 10 µM | 2.81 µM and 4.61 µM and 7.95 µM | 24.7 µM and 19.2 µM and > 10 µM | 10.7 µM and 2.28 µM and 9.69 µM | 22.5 µM and 13.3 µM and > 10 µM | 11.4 µM and 2.86 µM and > 10 µM | 27.2 µM and 17.6 µM and > 10 µM | 5.86 µM and 0.928 µM and 5.07 µM | 30.1 µM and 8.21 µM and > 10 µM | – | 11.9 µM and > 10 µM | 8.49 µM and 1.28 µM and 6.56 µM | 26.8 µM and 16 µM and > 10 µM
COc1ccc(C(=NN=C(N)N)c2ccc(OC)cc2)cc1 | 2.89 µM | 12.4 µM | 3.15 µM | 12.4 µM | 2.34 µM | 12 µM | 3.87 µM | 17.8 µM | 21.1 µM | 75.6 µM | 2.6 µM | 10.8 µM | 3.11 µM | 12.4 µM | 2.91 µM | 11.4 µM | 3.7 µM | 15.4 µM | 2.35 µM | 6.36 µM
O=C(c1ccc(C(F)(F)F)c(Cl)c1)N(Cc1ccc(Cl)cc1)c1ccc(-c2cc(C(F)(F)F)[nH]n2)c(O)c1 | 1.12 µM | 3.85 µM | 0.705 µM | 1.58 µM | 1.32 µM | 5.19 µM | 0.91 µM | 2.45 µM | 1.11 µM | 2.99 µM | 1.43 µM | 5.34 µM | 0.958 µM | 2.4 µM | 0.819 µM | 1.5 µM | 1.05 µM | 5.16 µM | 1.01 µM | 2.43 µM
COc1ccc2c3c1OC1C(OC)(OC)C=C[C@@]4(Br)[C@@H](C2)N(CC2CC2)CC[C@]314 (some centres undefined) | – | > 100 µM | – | > 100 µM | – | > 100 µM | – | > 100 µM | – | > 100 µM | – | > 100 µM | – | > 100 µM | – | > 100 µM | – | > 100 µM | – | > 100 µM
COC1=C(C)C(=O)c2c(c(CCCl)c3n2CCC3OC(C)=O)C1=O (centres undefined) | 0.071 µM | 1.85 µM | 0.791 µM | > 22.8 µM | 0.31 µM | 17.6 µM | 0.0586 µM | 0.992 µM | 0.447 µM | 8.47 µM | 0.0248 µM | 1.69 µM | 0.453 µM | 12.3 µM | 0.204 µM | 0.927 µM | 1.65 µM | > 33.1 µM | 0.171 µM | 0.592 µM
COc1ccc(CCN(CC(=O)N(CC(N)=O)C2CCC[C@@H]2OCc2ccccc2)C(=O)CN(C(=O)CN(CCc2ccc(Cl)cc2)C(=O)CN(C(=O)CN(C)Cc2ccccc2F)[C@H](C)C2CCCCC2)[C@H](C)C2CCCCC2)cc1OC (some centres undefined) | 1.17 µM | > 50 µM | 1.6 µM | > 50 µM | 1.29 µM | > 50 µM | 3.26 µM | > 50 µM | > 50 µM | > 50 µM | 2.42 µM | > 50 µM | 2.56 µM | > 50 µM | 1.08 µM | 2.77 µM | 1.61 µM | > 50 µM | 1.13 µM | 4.05 µM
CCCCCCn1c(SC)nc(COC(=O)NC)c1COC(=O)NC | – | 38 µM | – | 31.7 µM | – | 30.6 µM | – | 41.2 µM | – | 69.3 µM | – | 30.1 µM | – | 64.4 µM | – | > 100 µM | – | > 100 µM | – | 38.8 µM
CN(C)CC(=O)Nc1ccc2ncnc(Nc3ccc(Oc4cccc(C(F)(F)F)c4)c(Cl)c3)c2c1 | 1.53 µM | 3.02 µM | 1.65 µM | 3.03 µM | 1.97 µM | 5.44 µM | 3.79 µM | 14.8 µM | 3.06 µM | 13.2 µM | 2.13 µM | 6.78 µM | 1.66 µM | 3.3 µM | 1.73 µM | 3.13 µM | 2.21 µM | 6.52 µM | 1.46 µM | 2.85 µM
CCOC(=O)C1=C(C)NC(=O)NC1CN1C(=O)c2ccccc2C1=O (centres undefined) | > 100 µM | > 100 µM | > 100 µM | > 100 µM | > 100 µM | > 100 µM | > 100 µM | > 100 µM | > 100 µM | > 100 µM | > 100 µM | > 100 µM | > 100 µM | > 100 µM | > 100 µM | > 100 µM | > 100 µM | > 100 µM | > 100 µM | > 100 µM
CC1(C)N=C(N)N=C(N)N1c1ccc(OCCCNC(=O)Nc2cccc(S(=O)(=O)F)c2)c(Cl)c1 | 3.82 µM | > 100 µM | 0.636 µM | > 100 µM | 0.596 µM | > 100 µM | 3.65 µM | > 100 µM | > 100 µM | > 100 µM | 2.87 µM | > 100 µM | 1.64 µM | > 100 µM | 2.66 µM | > 100 µM | 0.598 µM | > 100 µM | 3.26 µM | > 100 µM
CN(C)CCCSc1ccccc1NC1=C(Cl)C(=O)C(Nc2ccccc2SCCCN(C)C)=C(Cl)C1=O | 1.65 µM | 3.94 µM | 1.52 µM | 2.93 µM | 1.93 µM | 4.48 µM | 1.75 µM | 3.74 µM | 3.21 µM | 18.7 µM | 1.76 µM | 3.23 µM | 2.17 µM | 4.38 µM | 1.39 µM | 2.88 µM | 2.08 µM | 5.92 µM | 1.74 µM | 3.72 µM
CC1(C)N=C(N)N=C(N)N1c1ccc(Cl)cc1 | 4.88 µM | > 100 µM | 0.627 µM | > 100 µM | 0.688 µM | > 100 µM | 2.51 µM | > 100 µM | > 100 µM | > 100 µM | 5.35 µM | > 100 µM | 0.832 µM | > 100 µM | 2.85 µM | > 100 µM | 1.3 µM | > 100 µM | 5.52 µM | > 100 µM
CC(C)[C@@](O)(c1ccc2cc(OC(F)F)c(OC(F)F)cc2c1)c1cn[nH]n1 | 16.6 µM | 37.7 µM | 17.2 µM | 32 µM | 18.6 µM | 49.4 µM | 14.3 µM | 32.2 µM | 18.5 µM | 50.9 µM | 16.7 µM | 39.2 µM | 19.7 µM | 43.2 µM | 15.8 µM | 29.2 µM | 19.3 µM | 55.3 µM | 16 µM | 33.4 µM
CC(C)(C)c1cc(/C=N/NC(=O)c2ccccc2NC(=O)c2cccs2)c(O)c(C(C)(C)C)c1 | 0.485 µM | > 100 µM | 0.713 µM | 14.4 µM | 0.668 µM | > 100 µM | 1.62 µM | 25.5 µM | 0.606 µM | 15.9 µM | 4.13 µM | > 100 µM | 1.38 µM | 17.8 µM | 0.542 µM | > 100 µM | 1.1 µM | 51.6 µM | 0.459 µM | 16 µM
COc1cc(-c2nc3sc(C)cn3c2/C=C2\C(=O)Nc3ccccc32)c(Br)c(OC)c1OC | 5.81 µM | 43.3 µM | 26 µM | > 100 µM | 44.7 µM | > 100 µM | 30.9 µM | > 100 µM | 28.3 µM | 82.5 µM | 28.5 µM | 72.4 µM | 30.6 µM | > 100 µM | 30.3 µM | > 100 µM | 48.4 µM | > 100 µM | 29.1 µM | > 100 µM
Oc1ccc2c3c1OC1c4[nH]ncc4C[C@H]4[C@@H](C2)N(CC2CC2)CC[C@]314 (some centres undefined) | – | > 100 µM | – | > 100 µM | – | > 100 µM | – | > 100 µM | – | > 100 µM | – | > 100 µM | – | – | – | > 100 µM | – | > 100 µM | – | > 100 µM
COc1cc(CNCCN2C(=O)c3ccc4c5c(ccc(c35)C2=O)C(=O)N(CCNCc2cc(OC)c(OC)c(OC)c2)C4=O)cc(OC)c1OC | 0.262 µM | 1.05 µM | 0.136 µM | 0.428 µM | 0.786 µM | 2.37 µM | 0.794 µM | 1.78 µM | 2.05 µM | 50 µM | 0.197 µM | 0.743 µM | – | – | 0.142 µM | 0.421 µM | 0.147 µM | 0.413 µM | 0.717 µM | 1.4 µM
